Source: ChEMBL document CHEMBL1133521, “Multiple-conformation and protonation-state representation in 4D-QSAR: the neurokinin-1 receptor system” (J Med Chem, 2000)
pIC50: −log10 of the molar value.

What follows are compounds tested against Substance-P receptor (Homo sapiens, UniProt P25103) (assay: Inhibitory activity against Tachykinin receptor 1).
Sequence of Substance-P receptor (P25103 whole entry): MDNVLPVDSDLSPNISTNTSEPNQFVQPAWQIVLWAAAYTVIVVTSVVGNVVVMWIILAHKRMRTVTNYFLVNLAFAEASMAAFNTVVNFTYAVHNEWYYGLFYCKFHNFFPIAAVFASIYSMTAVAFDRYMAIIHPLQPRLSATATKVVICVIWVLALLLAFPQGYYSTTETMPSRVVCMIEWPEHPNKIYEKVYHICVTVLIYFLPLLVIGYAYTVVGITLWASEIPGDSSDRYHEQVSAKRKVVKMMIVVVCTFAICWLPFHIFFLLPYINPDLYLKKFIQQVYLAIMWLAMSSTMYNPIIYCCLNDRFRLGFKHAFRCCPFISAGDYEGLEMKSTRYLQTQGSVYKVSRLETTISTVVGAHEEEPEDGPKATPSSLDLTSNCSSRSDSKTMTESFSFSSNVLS

Compound | pIC50
CN(CC(c1cccc2c1OCO2)N1CCC(N2CCCCC2)CC1)C(=O)Cc1ccccc1Cl (stereo unspecified) | 7.92
COc1cccc(C(CNC(=O)Cc2cc(C(F)(F)F)cc(C(F)(F)F)c2)N2CCC(N3CCCCC3)CC2)c1 (stereo unspecified) | 8.82
O=C(Cc1cc(C(F)(F)F)cc(C(F)(F)F)c1)NCC(Cc1ccccc1)N1CCC(N2CCCCC2)CC1 (stereo unspecified) | 7.09
O=C(Cc1cc(C(F)(F)F)cc(C(F)(F)F)c1)NCC(c1ccc(Cl)c(Cl)c1)N1CCC(N2CCCCC2)CC1 (stereo unspecified) | 9.12
O=C(Cc1cc(C(F)(F)F)cc(C(F)(F)F)c1)N1CCCCC1C(CN1CCC(N2CCCCC2)CC1)c1ccccc1 (stereo unspecified) | 5.82
CN(CC(c1ccc2c(c1)OCO2)N1CCC(N2CCCCC2)CC1)C(=O)Cc1cc(C(F)(F)F)cc(C(F)(F)F)c1 (stereo unspecified) | 8.32
O=C(Cc1cc(C(F)(F)F)cc(C(F)(F)F)c1)NCC(c1ccc(F)c(Cl)c1)N1CCC(N2CCCCC2)CC1 (stereo unspecified) | 8.54
CC(C)Oc1cccc(CC(=O)NCC(c2ccc(Cl)c(Cl)c2)N2CCC(N3CCCCC3)CC2)c1 (stereo unspecified) | 8.30
CN(CC(c1ccccc1)N1CCN(C2CCCCC2)CC1)C(=O)Cc1cc(C(F)(F)F)cc(C(F)(F)F)c1 (stereo unspecified) | 8.70
CN(CCc1cc(C(F)(F)F)cc(C(F)(F)F)c1)C(=O)C(Cc1c[nH]c2ccccc12)N1CCN(C2CCCCC2)CC1 (stereo unspecified) | 7.92
COc1cccc(C(CN(C)C(=O)Cc2cc(C(F)(F)F)cc(C(F)(F)F)c2)N2CCC(N3CCCCC3)CC2)c1OC (stereo unspecified) | 8.00
O=C(Cc1cc(C(F)(F)F)cc(C(F)(F)F)c1)NCC(c1cccc2c1OCO2)N1CCN(C2CCCCC2)CC1 (stereo unspecified) | 8.80
COc1ccccc1C(CNC(=O)Cc1cc(C)cc(C)c1)N1CCN(C2CCCCC2)CC1 (stereo unspecified) | 7.82
Cc1c(F)cccc1C(CN(C)C(=O)Cc1cc(C(F)(F)F)cc(C(F)(F)F)c1)N1CCC(N2CCCCC2)CC1 (stereo unspecified) | 8.85
COc1ccccc1C(CNC(=O)Cc1cc(C(F)(F)F)cc(C(F)(F)F)c1)N1CCN(C2Cc3ccccc3C2)CC1 (stereo unspecified) | 8.14
O=C(Cc1cc(C(F)(F)F)cc(C(F)(F)F)c1)NCC(c1cccc2ccccc12)N1CCC(N2CCCCC2)CC1 (stereo unspecified) | 7.85
O=C(Cc1cc(C(F)(F)F)cc(C(F)(F)F)c1)NCC(c1ccc(F)c(F)c1)N1CCC(N2CCCCC2)CC1 (stereo unspecified) | 8.48
CC(C)C1CCN(C2CCN(C(CN(C)C(=O)Cc3cc(C(F)(F)F)cc(C(F)(F)F)c3)c3ccc(Cl)c(Cl)c3)CC2)CC1 (stereo unspecified) | 7.82
Cc1cc(C)cc(CC(=O)N(C)CC(c2cccc3c2OCO3)N2CCC(N3CCCCC3)CC2)c1 (stereo unspecified) | 8.54
COc1cc(C(=O)N(C)CC(c2cccc3c2OCO3)N2CCC(N3CCCCC3)CC2)cc(OC)c1OC (stereo unspecified) | 7.43
O=C(Cc1cc(C(F)(F)F)cc(C(F)(F)F)c1)NCC(c1ccc(Cl)c(Cl)c1)N1CCC(N(CCO)CCO)CC1 (stereo unspecified) | 8.28

Compound | pIC50
COc1ccccc1C(CNC(=O)Cc1ccccc1C(F)(F)F)N1CCN(C2CCCCC2)CC1 (stereo unspecified) | 6.57
COc1ccccc1C(CNC(=O)Cc1cc(C(F)(F)F)cc(C(F)(F)F)c1)N1CCCCC1 (stereo unspecified) | 6.60
COc1ccccc1C(CNC(=O)Cc1cc(C)cc(C)c1)N1CCC(N2CCCCC2)CC1 (stereo unspecified) | 7.21
O=C(Cc1cc(C(F)(F)F)cc(C(F)(F)F)c1)NCC(c1ccccc1)N1CCC(N2CCCCC2)CC1 (stereo unspecified) | 8.27
O=C(Cc1cc(C(F)(F)F)cc(C(F)(F)F)c1)NCC(c1cc(Cl)cc(Cl)c1Cl)N1CCC(N2CCCCC2)CC1 (stereo unspecified) | 8.19
CN(CC(Cc1ccccc1)N1CCC(N2CCCCC2)CC1)C(=O)Cc1cc(C(F)(F)F)cc(C(F)(F)F)c1 (stereo unspecified) | 7.49
O=C(Cc1cc(C(F)(F)F)cc(C(F)(F)F)c1)NCC(c1cccc(C(F)(F)F)c1F)N1CCC(N2CCCCC2)CC1 (stereo unspecified) | 8.77
CC(C)N1CCN(C(CNC(=O)Cc2cc(C(F)(F)F)cc(C(F)(F)F)c2)c2cccc3c2OCO3)CC1 (stereo unspecified) | 8.16
O=C(Cc1cc(C(F)(F)F)cc(C(F)(F)F)c1)NCC(c1ccc2c(c1)OCCO2)N1CCC(N2CCCCC2)CC1 (stereo unspecified) | 6.85
COc1ccc(OC)c(C(CNC(=O)Cc2cc(C(F)(F)F)cc(C(F)(F)F)c2)N2CCC(N3CCCCC3)CC2)c1 (stereo unspecified) | 6.96
COc1ccccc1C(CNC(=O)Cc1cc(C(F)(F)F)cc(C(F)(F)F)c1)N1CCC(O)(c2ccccc2)CC1 (stereo unspecified) | 6.89
CN(CC(c1ccc2c(c1)OCCO2)N1CCC(N2CCCCC2)CC1)C(=O)Cc1cc(C(F)(F)F)cc(C(F)(F)F)c1 (stereo unspecified) | 8.05
COc1ccccc1C(C1CCCCN1C(=O)Cc1cc(C(F)(F)F)cc(C(F)(F)F)c1)N1CCC(N2CCCCC2)CC1 (stereo unspecified) | 8.37
COc1ccccc1C(CNC(=O)Cc1ccc(Cl)c(Cl)c1)N1CCN(C2CCCCC2)CC1 (stereo unspecified) | 6.55
CN(CC(c1ccc(F)c(Cl)c1)N1CCC(N2CCCCC2)CC1)C(=O)Cc1cc(C(F)(F)F)cc(C(F)(F)F)c1 (stereo unspecified) | 8.77
O=C(Cc1cc(C(F)(F)F)cc(C(F)(F)F)c1)NCC(c1cccc(F)c1)N1CCC(N2CCCCC2)CC1 (stereo unspecified) | 8.34
COc1ccc(CC(=O)NCC(c2ccccc2OC)N2CCN(C3CCCCC3)CC2)cc1 (stereo unspecified) | 5.66
CN(CC(c1ccccc1Br)N1CCC(N2CCCCC2)CC1)C(=O)Cc1cc(C(F)(F)F)cc(C(F)(F)F)c1 (stereo unspecified) | 8.96
CN(CC(c1cccc2c1OCO2)N1CCC(N2CCCCC2)CC1)C(=O)C(c1ccccc1)c1ccccc1 (stereo unspecified) | 7.66
COc1ccc(C(CN(C)C(=O)Cc2cc(C(F)(F)F)cc(C(F)(F)F)c2)N2CCC(N3CCCCC3)CC2)c(OC)c1OC (stereo unspecified) | 7.92
CN(CC(c1ccc(F)c(F)c1F)N1CCC(N2CCCCC2)CC1)C(=O)Cc1cc(C(F)(F)F)cc(C(F)(F)F)c1 (stereo unspecified) | 8.74

Compound | pIC50
O=C(Cc1cc(C(F)(F)F)cc(C(F)(F)F)c1)NCC(c1cccc2ccccc12)N1CCN(C2CCCCC2)CC1 (stereo unspecified) | 8.55
COc1ccccc1C(CNC(=O)Cc1cc(C(F)(F)F)cc(C(F)(F)F)c1)N1CCC(N2CCCCC2)CC1 (stereo unspecified) | 8.62
COc1cccc(C(CNC(=O)Cc2cc(C(F)(F)F)cc(C(F)(F)F)c2)N2CCC(N3CCCCC3)CC2)c1OC (stereo unspecified) | 8.12
CN(CC(c1ccc(F)cc1Cl)N1CCC(N2CCCCC2)CC1)C(=O)Cc1cc(C(F)(F)F)cc(C(F)(F)F)c1 (stereo unspecified) | 8.82
O=C(Cc1cc(C(F)(F)F)cc(C(F)(F)F)c1)NCC(C(c1ccccc1)c1ccccc1)N1CCC(N2CCCCC2)CC1 (stereo unspecified) | 6.89
CN(CC(c1cccc(C(F)(F)F)c1F)N1CCC(N2CCCCC2)CC1)C(=O)Cc1cc(C(F)(F)F)cc(C(F)(F)F)c1 (stereo unspecified) | 8.85
CN(CC(c1ccc(Cl)c(Cl)c1)N1CCC(N2CCCCC2)CC1)C(=O)Cc1cc(C(F)(F)F)cc(C(F)(F)F)c1 (stereo unspecified) | 8.64
CC(C)N1CCN(C(CN(C)C(=O)Cc2cc(C(F)(F)F)cc(C(F)(F)F)c2)c2cccc3c2OCO3)CC1 (stereo unspecified) | 8.85
CN(CC(c1cccc2c1OCO2)N1CCC(N2CCCCC2)CC1)C(=O)Cc1ccccc1Br (stereo unspecified) | 8.22
Cc1c(F)cccc1C(CNC(=O)Cc1cc(C(F)(F)F)cc(C(F)(F)F)c1)N1CCC(N2CCCCC2)CC1 (stereo unspecified) | 8.52
CN(CC(c1cccc2c1OCO2)N1CCC(N2CCCCC2)CC1)C(=O)Cc1cc(C(F)(F)F)cc(C(F)(F)F)c1 (stereo unspecified) | 8.74
O=C(Cc1cc(C(F)(F)F)cc(C(F)(F)F)c1)NCC(c1ccccc1Br)N1CCC(N2CCCCC2)CC1 (stereo unspecified) | 9.06
CN(CC(c1cc(Cl)cc(Cl)c1Cl)N1CCC(N2CCCCC2)CC1)C(=O)Cc1cc(C(F)(F)F)cc(C(F)(F)F)c1 (stereo unspecified) | 8.52
COc1ccc(C(CNC(=O)Cc2cc(C(F)(F)F)cc(C(F)(F)F)c2)N2CCC(N3CCCCC3)CC2)c(OC)c1OC (stereo unspecified) | 6.68
CN(CC(c1cccc2c1OCO2)N1CCN(C2CCCCC2)CC1)C(=O)Cc1cc(C(F)(F)F)cc(C(F)(F)F)c1 (stereo unspecified) | 8.89
O=C(Cc1cc(C(F)(F)F)cc(C(F)(F)F)c1)NCC(c1ccc(F)cc1Cl)N1CCC(N2CCCCC2)CC1 (stereo unspecified) | 8.77
COc1ccccc1C(CNC(=O)Cc1ccc(Cl)cc1)N1CCN(C2CCCCC2)CC1 (stereo unspecified) | 6.07
COc1ccccc1C(CNC(=O)Cc1cccc(OC(C)C)c1)N1CCN(C2CCCCC2)CC1 (stereo unspecified) | 6.89
COc1ccccc1CC(=O)N(C)CC(c1cccc2c1OCO2)N1CCC(N2CCCCC2)CC1 (stereo unspecified) | 7.80
